Where two headings read alike, the source gives them in different places.
Columns and labels:
[1] = target: T1, complement C5a receptor 1 (C5aR1) (Homo sapiens, UniProt P21730); assay: β-arrestin recruitment via C5aR1 activation in live CHO-K1 cells (PathHunter), antagonist mode; type: cell-based; settings: antagonist mode; recombinant hC5a (EC90) as competing natural agonist; live CHO-K1 cells; read-out: [Antagonist] B-arrestin2 recruitment: Average IC50
T1 construct: β-galactosidase fragment (PathHunter enzyme complementation); host or cells: CHO-K1 (PathHunter CHO-K1 C5aR1 β-arrestin cell line)
T1 sequence (P21730 1-350): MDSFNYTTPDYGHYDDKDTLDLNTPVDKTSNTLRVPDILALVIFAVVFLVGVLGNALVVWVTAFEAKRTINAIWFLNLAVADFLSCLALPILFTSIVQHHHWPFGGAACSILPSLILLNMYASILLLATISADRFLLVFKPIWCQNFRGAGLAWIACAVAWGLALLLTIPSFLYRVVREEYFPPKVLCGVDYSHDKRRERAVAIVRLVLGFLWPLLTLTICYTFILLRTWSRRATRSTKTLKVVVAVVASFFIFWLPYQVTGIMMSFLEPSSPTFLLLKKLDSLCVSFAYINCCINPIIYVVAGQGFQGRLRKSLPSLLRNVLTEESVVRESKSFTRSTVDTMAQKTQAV
Description: (§1) Exemplary compounds were evaluated for classical GPCR β-arrestin recruitment via complement C5a receptor 1 (C5aR1) activation in live CHO-K1 cells. This cell line expresses two fragments of the […] protein coupled to β-arrestin and C5aR1. Complementation of the two fragments allows for the assessment of both C5aR1 agonism and antagonism. Recombinant hC5a (EC90) was used as the competing natural agonist against disclosed compounds (more information on the expanded protocol and cell line can be found on the manufacturer's website: PathHunter® CHO-K1 C5aR1 β-arrestin cell line, DiscoverX, Catalog No. 93-0557C2). […] IC50 ranges: A: IC50≤500 nM; B: 500 nM<IC50≤5 uM; C: 5 uM<IC50≤100 uM; D: IC50>100 uM.

[2] = target: T1, complement C5a receptor 1 (C5aR1); assay: β-arrestin recruitment via C5aR1 activation in live CHO-K1 cells (PathHunter), agonist mode; type: cell-based
Description: as §1

IC50 [1] [nM]	[Agonist] B-arrestin2 recruitment: Average EC50 (nM) [2]	[Agonist] B-arrestin2 recruitment: Average EC50 (nM) ([2]; at 10 μM)	Structure (SMILES)
< 500	Non-Active	–	Cc1cnc2cc([C@H]3CC[C@H](c4c(C)cccc4F)C3)c(=O)n(Cc3ncccc3OC(F)F)c2n1 [175C, 5-((3-(Difluoromethoxy)pyridin-2-yl)methyl)-7-((1S,3S)-3-(2-fluoro-6-methylphenyl)cyclopentyl)-3-methylpyrido[2,3-b]pyrazin-6(5H)-one]
< 500	Non-Active	–	Cc1cnc2cc([C@H]3CC[C@H](c4cnsc4C)CC3)c(=O)n(Cc3ncccc3OC(F)(F)F)c2n1 [compound 253, 3-Methyl-7-[(1r,4r)-4-(5-methyl-4-isothiazolyl)cyclohexyl]-5-[(3-trifluoromethoxy-2-pyridyl)methyl]-1,4,5-triaza-6(5H)-naphthalenone]
< 500	–	Non-Active at 10 μM	COc1nccc(C)c1[C@H]1CC[C@H](c2cc3ccc(C)nc3n(Cc3ncccc3C3CC3)c2=O)CC1 [compound 252, 1-((3-Cyclopropylpyridin-2-yl)methyl)-3-((1r,4r)-4-(2-methoxy-4-methylpyridin-3-yl)cyclohexyl)-7-methyl-1,8-naphthyridin-2(1H)-one]
< 500	–	Non-Active at 10 μM	Cc1cnc2cc([C@H]3CC[C@H](c4ncccc4C(F)(F)F)CC3)c(=O)n(Cc3ncccc3C(F)(F)F)c2n1 [compound 180, 3-Methyl-7-((1r,4r)-4-(3-(trifluoromethyl)pyridin-2-yl)cyclohexyl)-5-((3-(trifluoromethyl)pyridin-2-yl)methyl)pyrido[2,3-b]pyrazin-6(5H)-one]
< 500	–	Non-Active at 10 μM	Cc1cnc2cc([C@H]3CC[C@H](c4c(C)cccc4F)CC3)c(=O)n(Cc3nccnc3OC(F)F)c2n1 [168B, 5-((3-(Difluoromethoxy)pyrazin-2-yl)methyl)-7-((1r,4r)-4-(2-fluoro-6-methylphenyl)cyclohexyl)-3-methylpyrido[2,3-b]pyrazin-6(5H)-one]
< 500	Non-Active	–	Cc1cnc2cc(C3CCN(c4c(C)cccc4F)CC3)c(=O)n(Cc3ncccc3OC(F)(F)F)c2n1 [compound 68, 7-(1-(2-Fluoro-6-methylphenyl)piperidin-4-yl)-3-methyl-5-((3-(trifluoromethoxy)pyridin-2-yl)methyl)pyrido[2,3-b]pyrazin-6(5H)-one]
> 100000	Non-Active	–	O=c1c(C2CCN(c3cccnc3F)CC2)cc2nccnc2n1Cc1ncccc1C(F)(F)F [compound 72, 7-(1-(2-Fluoropyridin-3-yl)piperidin-4-yl)-5-((3-(trifluoromethyl)pyridin-2-yl)methyl) pyrido[2,3-b]pyrazin-6(5H)-one]
> 100000	Non-Active	–	Cc1cccc(F)c1N1CCC(c2nc3ccccc3n(Cc3nccnc3C(F)(F)F)c2=O)CC1 [compound 136, 3-(1-(2-Fluoro-6-methylphenyl)piperidin-4-yl)-1-((3-(trifluoromethyl)pyrazin-2-yl)methyl)quinoxalin-2(1H)-one]
< 500	–	Non-Active at 10 μM	Cc1cnc2cc([C@H]3CC[C@H](c4c(C)cccc4F)CC3)c(=O)n(Cc3ccccc3C(F)(F)F)c2n1 [compound 224, 7-((1r,4r)-4-(2-Fluoro-6-methylphenyl)cyclohexyl)-3-methyl-5-(2-(trifluoromethyl)benzyl)pyrido[2,3-b]pyrazin-6(5H)-one]
500 to 5000	–	Non-Active at 10 μM	Cc1cnc2cc(C3CCN(c4c(F)ccc5c4cnn5C)CC3)c(=O)n(Cc3ncccc3C(F)(F)F)c2n1 [compound 184, 7-(1-(5-Fluoro-1-methyl-1H-indazol-4-yl)piperidin-4-yl)-3-methyl-5-((3-(trifluoromethyl)pyridin-2-yl)methyl)pyrido[2,3-b]pyrazin-6(5H)-one]
< 500	Non-Active	–	Cc1cnc2cc(C3CCN(c4c(C)cccc4F)CC3)c(=O)n([C@@H]3CCCc4nccnc43)c2n1 [61b, (R)-7-(1-(2-fluoro-6-methylphenyl)piperidin-4-yl)-3-methyl-5-(5,6,7,8-tetrahydroquinoxalin-5-yl)pyrido[2,3-b]pyrazin-6(5H)-one]
< 500	Non-Active	–	Cc1ccc2cc([C@H]3C[C@@H](c4c(C)cccc4F)C3)c(=O)n(Cc3ncccc3C(F)(F)F)c2n1 [243B, 3-((1s,3s)-3-(2-Fluoro-6-methylphenyl)cyclobutyl)-7-methyl-1-((3-(trifluoromethyl)pyridin-2-yl)methyl)-1,8-naphthyridin-2(1H)-one]
< 500	–	Non-Active at 10 μM	Cc1cnc2cc([C@H]3CC[C@H](c4c(C)cccc4F)CC3)c(=O)n(Cc3ncccc3OC(F)F)c2n1 [compound 212, 5-((3-(Difluoromethoxy)pyridin-2-yl)methyl)-7-((1r,4r)-4-(2-fluoro-6-methylphenyl)cyclohexyl)-3-methylpyrido[2,3-b]pyrazin-6(5H)-one]
< 500	Non-Active	–	Cc1ccc2cc([C@H]3CC[C@H](c4c(C)ccnc4F)CC3)c(=O)n(Cc3ncccc3C(C)(F)F)c2n1 [compound 258, 1-((3-(1,1-difluoroethyl)pyridin-2-yl)methyl)-3-((1r,4r)-4-(2-fluoro-4-methylpyridin-3-yl)cyclohexyl)-7-methyl-1,8-naphthyridin-2(1H)-one]
500 to 5000	–	Non-Active at 10 μM	Cc1cnc2cc([C@H]3CC[C@H](c4scnc4C)CC3)c(=O)n(Cc3ncccc3C(F)(F)F)c2n1 [compound 164, 3-Methyl-7-((1r,4r)-4-(4-methylthiazol-5-yl)cyclohexyl)-5-((3-(trifluoromethyl)pyridin-2-yl)methyl)pyrido[2,3-b]pyrazin-6(5H)-one]
< 500	–	Non-Active at 10 μM	CCc1cnc2cc([C@H]3CC[C@H](c4c(C)cccc4F)CC3)c(=O)n(Cc3ncccc3OC(F)(F)F)c2n1 [compound 204, 3-Ethyl-7-((1r,4r)-4-(2-fluoro-6-methylphenyl)cyclohexyl)-5-((3-(trifluoromethoxy)pyridin-2-yl)methyl)pyrido[2,3-b]pyrazin-6(5H)-one]
–	–	Non-Active at 10 μM	Cc1cccc(F)c1[C@@H]1CC[C@H](c2cc3nccnc3n(Cc3ncccc3C(F)(F)F)c2=O)C1 [200A, 7-((1S,3R)-3-(2-Fluoro-6-methylphenyl)cyclopentyl)-5-((3-(trifluoromethyl)pyridin-2-yl)methyl)pyrido[2,3-b]pyrazin-6(5H)-one]
–	Non-Active	–	Cc1ccc2cc([C@H]3CC[C@H](c4c(C)cccc4F)CC3)c(=O)n(Cc3nccnc3C(C)(F)F)c2n1 [compound 269, 1-{[3-(1,1-Difluoroethyl)-2-pyrazinyl]methyl}-7-methyl-3-[(1r,4r)-4-(2-fluoro-6-tolyl)cyclohexyl]-1,8-diaza-2(1H)-naphthalenone]

— patent US20260317320A1, “C5AR1 ANTAGONISTS AND USES THEREOF” (Vanqua Bio, Inc., priority 2022, published 2026)
